Patent publication US11974988B2, “Neuroprotective compositions and methods of using the same” (The Board of Supervisors of Louisiana State Univer …, priority 2018, dated 2024)
pIC50: −log10 of the molar value. In brackets after ≈: the same amount, converted by molar mass. Entries after “also recorded” stand apart in the source; their conditions may differ. Where two headings read alike, the source gives them in different places.

Tests used:
[1] = Max. solubility (Table 1); assay type: physicochemical
[2] = tested on: activity-regulated Gln/MeAIB transport (SNAT activity) in hippocampal neurons; assay: Activity-regulated (spontaneous, 4-AP- or K+-stimulated) [14C]-MeAIB transport in primary hippocampal neurons; assay type: cell-based, rat; parameters: block of transport activity: dose or concentration left out as unconfirmed; conditions: for relative affinity for PMA-induced K+-activity-stimulated Gln/MeAIB transport activity: PMA 10 min before KCl 60 mM; for inhibition at 10 µM / pIC50: Rattus norvegicus, Hippocampal neuron; for inhibition at 10 µM: read-out: block / inhibition of transport activity; for Active (annotation beside the compound name: active vs inactive derivatives): Table 1: SKA-41, and active and inactive derivatives; for potency to inhibit activity-regulated MeAIB transport relative to a comparator, in words: spontaneous and 4-AP stimulated transport; for reduction of activity-regulated Gln/MeAIB transport after preconditioning: brief exposure (KCl 45 mM, Glu or NMDA), transport measured after 24 hr
[3] = tested on: activity-regulated Gln/MeAIB transport (SNAT activity) in hippocampal neurons; conditions: cited from earlier work; for block of 14C-MeAIB transport activity: 2 mM
[4] = 4-AP-stimulated (depolarization) [14C]-MeAIB uptake, DIV16, n in brackets, read-out: SNAT Activity IC50, 4-AP
[5] = spontaneous [14C]-MeAIB uptake, DIV 19, n in brackets, read-out: SNAT Activity IC50, Spont
[6] = hippocampal neurons in vitro, 14C-MeAIB 20 μM, read-out: IC50 to inhibit activity-regulated Gln/MeAIB transport

FC(F)(F)c1ccc(Nc2nc(-c3ccccc3)cs2)cc1 [SKA-268, 4-Phenyl-N-(4-(trifluoromethyl)phenyl)thiazol-2-amine]
melting point: 153 °C | solubility [1]: 10 µM (≈ 3.2 µg/mL)

CNCC(=O)O [sarcosine]
relative affinity for PMA-induced K+-activity-stimulated Gln/MeAIB transport activity [2]: ~8 µM | block of 14C-MeAIB transport activity [3]: ~90%

Nc1nc(-c2ccc(-c3ccccc3)cc2)cs1 [SKA-232]
solubility [1]: 50 µM (≈ 12.6 µg/mL)

Cc1ccc(-c2csc(N)n2)c2ccccc12 [SKA-190, 4-(4-Methylnaphthalen-1-yl)thiazol-2-amine]
solubility [1]: 50 µM (≈ 12 µg/mL) | block of transport activity [2]: 90% | inhibition at 10 µM [2]: 90% | Active (annotation beside the compound name: active vs inactive derivatives) [2]: SKA-190 Active | inhibition of spontaneous activity-regulated 14C-MeAIB transport, in words ([2]; screens, 10 μM, GABA 2 mM): blocked spontaneous transport activity; also recorded: inhibited spontaneous transport activity

CN[C@@H]1C[C@H]2O[C@@](C)([C@@H]1OC)n1c3ccccc3c3c4c(c5c6ccccc6n2c5c31)C(=O)NC4 [staurosporine, reference compound]
effect on PMA stimulation of 14C-MeAIB transport ([2]; staurosporine 200 nM): abolished

c1ccc(-c2csc(Nc3ccccn3)n2)cc1 [SKA-265, 4-Phenyl-N-(pyridin-2-yl)thiazol-2-amine]
solubility [1]: 50 µM (≈ 12.7 µg/mL)

Nc1nc(-c2ccc(-c3csc(N)n3)cc2)cs1 [SKA-230, 4,4′-(1,4-Phenylene)bis(thiazol-2-amine)]
melting point: 350 °C | solubility [1]: 50 µM (≈ 13.7 µg/mL)

C[C@H](N)C(=O)O [alanine]
block of 14C-MeAIB transport activity [3]: ~90%

Cc1ccc2cccc(-c3csc(N)n3)c2c1 [SKA-193, 4-(7-Methylnaphthalen-1-yl)thiazol-2-amine]
melting point: 154 to 156 °C | solubility [1]: 50 µM (≈ 12 µg/mL) | block of transport activity [2]: 90% | inhibition at 10 µM [2]: 90% | Active (annotation beside the compound name: active vs inactive derivatives) [2]: SKA-193 Active | inhibition of spontaneous activity-regulated 14C-MeAIB transport, in words ([2]; screens, 10 μM, GABA 2 mM): blocked spontaneous transport activity; also recorded: inhibited spontaneous transport activity

Cc1ccc(-c2csc(Nc3cccc(C(F)(F)F)c3)n2)cc1 [SKA-260, 4-(p-Tolyl)-N-(3-(trifluoromethyl)phenyl)thiazol-2-amine]
melting point: 108 °C | solubility [1]: 10 µM (≈ 3.34 µg/mL)

Nc1nc(-c2ccccc2)cs1 [SKA-78]
solubility [1]: 100 µM (≈ 17.6 µg/mL)

Nc1nc(-c2ccc3ccccc3c2)c(Br)s1 [SKA-220, 5-Bromo-4-(naphthalen-2-yl)thiazol-2-amine]
melting point: 140 to 141 °C | solubility [1]: 25 µM (≈ 7.63 µg/mL) | inhibition at 10 µM [2]: 90% | Active (annotation beside the compound name: active vs inactive derivatives) [2]: SKA-220 Active | inhibition of spontaneous activity-regulated 14C-MeAIB transport, in words ([2]; screens, 10 μM, GABA 2 mM): blocked spontaneous transport activity; also recorded: inhibited spontaneous transport activity | potency to inhibit activity-regulated MeAIB transport relative to a comparator, in words [2]: as potent as riluzole

Nc1nc(-c2ccc(F)cc2)cs1 [SKA-77]
solubility [1]: 100 µM (≈ 19.4 µg/mL)

Cc1sc(N)nc1-c1ccccc1 [SKA-82]
solubility [1]: 100 µM (≈ 19 µg/mL)

c1ccc(Nc2nc(-c3cccc4ccccc34)cs2)nc1 [SKA-258, 4-(Naphthalen-1-yl)-N-(pyridin-2-yl)thiazol-2-amine]
melting point: 225 °C | solubility [1]: 10 µM (≈ 3.03 µg/mL)

Cc1ccc(-c2nc(N)sc2Cl)c2ccccc12
fold difference 4-AP IC50 over Spont IC50 [2]: 5.2 x | pIC50 [2, 4]: 5.13 | pIC50 [2, 5]: 5.85

Nc1nc(-c2ccsc2)cs1 [SKA-94]
solubility [1]: 100 µM (≈ 18.2 µg/mL) | inhibition of spontaneous activity-regulated 14C-MeAIB transport, in words ([2]; screens, 10 μM, GABA 2 mM): inactive

Cc1ccc(-c2csc(Nc3ccc(C(F)(F)F)cc3)n2)cc1 [SKA-269, 4-(p-Tolyl)-N-(4-(trifluoromethyl)phenyl)thiazol-2-amine]
melting point: 155 °C | solubility [1]: 10 µM (≈ 3.34 µg/mL)

N[C@@H](CCC(=O)O)C(=O)O [Glu, glutamate]
reduction of activity-regulated Gln/MeAIB transport after preconditioning [2]: ~50%

NC(=O)CC[C@H](N)C(=O)O [Gln, glutamine]
relative affinity for PMA-induced K+-activity-stimulated Gln/MeAIB transport activity [2]: ~97 µM | block of 14C-MeAIB transport activity [3]: ~90% | Km ([3]; read-out: Km of the activity-regulated Gln/MeAIB transport system): 30 µM

O=C(O)[C@@H]1CCCN1 [proline]
block of 14C-MeAIB transport activity [3]: ~90%

Nc1nc(-c2cccc3ccccc23)cs1 [SKA-75, 4-(Naphthalen-1-yl)thiazol-2-amine]
solubility [1]: 25 µM (≈ 5.66 µg/mL) | inhibition at 10 µM [2]: > 50% | inhibition of spontaneous activity-regulated 14C-MeAIB transport, in words ([2]; screens, 10 μM, GABA 2 mM): inhibited spontaneous transport activity | potency to inhibit activity-regulated MeAIB transport relative to a comparator, in words [2]: much less potent than riluzole

Cc1ccc(-c2csc(N)n2)c2ccccc12 [drawing 63]
fold difference 4-AP IC50 over Spont IC50 [2]: 4.5 x | pIC50 [2, 4]: 4.93 | pIC50 [2, 5]: 5.59

Cc1ccc(-c2nc(N)sc2Br)c2ccccc12
fold difference 4-AP IC50 over Spont IC50 [2]: 4.4 x | pIC50 [2, 4]: 5.36 | pIC50 [2, 5]: 6.00

NCC(=O)O [glycine]
block of 14C-MeAIB transport activity [3]: ~90%

Cc1nc(-c2ccccc2)c(C)s1 [SKA-89]
solubility [1]: 100 µM (≈ 18.9 µg/mL) | inhibition of spontaneous activity-regulated 14C-MeAIB transport, in words ([2]; screens, 10 μM, GABA 2 mM): inactive

Cc1nc(-c2ccccc2)cs1 [SKA-88]
solubility [1]: 100 µM (≈ 17.5 µg/mL)

CCCCCCCCCCCCCC(=O)O[C@@H]1[C@@H](C)[C@@]2(O)[C@@H](C=C(CO)C[C@]3(O)C(=O)C(C)=C[C@@H]23)[C@@H]2C(C)(C)[C@]12OC(C)=O [PMA, phorbal myristate acetate, reference compound]
stimulation of 14C-MeAIB transport ([2]; PMA 10 min prior to KCl (60 mM) depolarization): two-fold

Nc1nc(-c2ccc(Cl)cc2)cs1 [SKA-80]
solubility [1]: 50 µM (≈ 10.5 µg/mL)

Nc1nc(-c2ccc(-c3ccc(-c4csc(N)n4)cc3)cc2)cs1 [SKA-255]
solubility [1]: 10 µM (≈ 3.5 µg/mL)

[Cl-].[K+] [KCl]
reduction of activity-regulated Gln/MeAIB transport after preconditioning [2]: ~50%

Cc1ccc2cc(-c3csc(N)n3)ccc2c1 [SKA-198, 4-(6-Methylnaphthalen-2-yl)thiazol-2-amine]
melting point: 178 to 179 °C | solubility [1]: 50 µM (≈ 12 µg/mL) | inhibition at 10 µM [2]: > 50% | inhibition of spontaneous activity-regulated 14C-MeAIB transport, in words ([2]; screens, 10 μM, GABA 2 mM): inhibited spontaneous transport activity

Nc1nc(-c2ccc3ccccc3c2)c(Cl)s1 [SKA-379, 5-Chloro-4-(naphthalen-2-yl)thiazol-2-amine]
potency to inhibit activity-regulated MeAIB transport relative to a comparator, in words [2]: as active as SKA-219 and SKA-220, respectively

c1ccc(Nc2nc(-c3ccccc3)cs2)cc1 [SKA-292, N,4-Diphenylthiazol-2-amine]
melting point: 135 to 137 °C | solubility [1]: 25 µM (≈ 6.31 µg/mL)

Nc1nc(-c2ccc3ccccc3c2)c(F)s1
fold difference 4-AP IC50 over Spont IC50 [2]: 1.3 x | pIC50 [2, 4]: 4.75 | pIC50 [2, 5]: 4.88

Nc1nc(-c2ccc3ccccc3c2)c(Cl)s1 [drawing 71]
fold difference 4-AP IC50 over Spont IC50 [2]: 1.5 x | pIC50 [2, 4]: 5.03 | pIC50 [2, 5]: 5.21

FC(F)(F)c1cccc(Nc2nc(-c3cccc4ccccc34)cs2)c1 [SKA-251, 4-(Naphthalen-1-yl)-N-(3-(trifluoromethyl)phenyl)thiazol-2-amine]
melting point: 135 °C | solubility [1]: 10 µM (≈ 3.7 µg/mL)

Cc1sc(N)nc1-c1ccc(C)c2ccccc12 [SKA-247, 5-Methyl-4-(4-methylnaphthalen-1-yl)thiazol-2-amine]
solubility [1]: 50 µM (≈ 12.7 µg/mL) | block of transport activity [2]: 90% | inhibition at 10 µM [2]: 90% | pIC50 [2, 6]: ~5.70 | Active (annotation beside the compound name: active vs inactive derivatives) [2]: SKA-247 Active | inhibition of spontaneous activity-regulated 14C-MeAIB transport, in words ([2]; screens, 10 μM, GABA 2 mM): blocked spontaneous transport activity; also recorded: inhibited spontaneous transport activity

Clc1ccc(Nc2nc(-c3cccc4ccccc34)cs2)cc1Cl [SKA-257, N-(3,4-Dichlorophenyl)-4-(naphthalen-1-yl)thiazol-2-amine]
melting point: 243 to 244 °C | solubility [1]: 10 µM (≈ 3.71 µg/mL)

Nc1nc(-c2ccc3ccccc3c2)cs1 [SKA-76, 4-(Naphthalen-2-yl)thiazol-2-amine]
solubility [1]: 25 µM (≈ 5.66 µg/mL) | inhibition at 10 µM [2]: > 50% | inhibition of spontaneous activity-regulated 14C-MeAIB transport, in words ([2]; screens, 10 μM, GABA 2 mM): inhibited spontaneous transport activity | potency to inhibit activity-regulated MeAIB transport relative to a comparator, in words [2]: much less potent than riluzole

Cc1ccc(-c2csc(N)n2)cc1 [SKA-79]
solubility [1]: 100 µM (≈ 19 µg/mL)

O=C1NC(=O)C(c2ccccc2)(c2ccccc2)N1 [phenytoin, reference compound]
potency of riluzole relative to phenytoin to inhibit activity-regulated Gln/MeAIB transport [2]: 50 × | pIC50 [2, 6]: 4.24

Nc1nc(-c2cccc3ccccc23)c(Cl)s1 [drawing 70]
fold difference 4-AP IC50 over Spont IC50 [2]: 4.3 x | pIC50 [2, 4]: 5.28 | pIC50 [2, 5]: 5.92

Nc1nc(-c2ccc(OC(F)(F)F)cc2)c(Cl)s1
fold difference 4-AP IC50 over Spont IC50 [2]: 1.6 x | pIC50 [2, 4]: 5.13 | pIC50 [2, 5]: 5.34

CN[C@H](CC(=O)O)C(=O)O [NMDA, N-methyl-D-aspartate, reference compound]
reduction of activity-regulated Gln/MeAIB transport after preconditioning [2]: ~50%

COc1ccc(CCN(C)CCCC(C#N)(c2ccc(OC)c(OC)c2)C(C)C)cc1OC (stereo not drawn) [verapamil, reference compound]
inhibition of spontaneous activity-regulated 14C-MeAIB transport, in words [2]: blocked

Nc1ccncc1 [4-AP, 4-aminopyridine, reference compound]
maximal stimulation of high-affinity 14C-MeAIB transport ([2]; 200 μM 4-AP): ~2 ×

N[C@@H](Cc1c[nH]cn1)C(=O)O [histidine]
block of 14C-MeAIB transport activity [3]: ~90%

Nc1nnc(-c2cccc(Cl)c2Cl)c(N)n1 [lamotrigine, reference compound]
pIC50 [2, 6]: 4.70
